This is an account of results in ChEMBL document CHEMBL1147532, “The design, preparation and SAR of novel small molecule sodium (Na(+)) channel blockers” (Bioorg Med Chem Lett, 2004).

One data set concerns the target CYP3A4 (Homo sapiens, UniProt P08684). The data set can be described thus: Inhibition of cytochrome P450 3A4 was determined at 2 uM.
Data set [1] deals with T1, CYP2D6 (Homo sapiens, UniProt P10635). The data set can be described thus: (§1) Inhibition of cytochrome P450 2D6 at 2 uM.
The next data set addresses Cytochrome P450 2D6 (Homo sapiens, UniProt P10635). The data set can be described thus: Predictive competitive inhibition of cytochrome P450 2D6 was determined in silico.
Data set [2] addresses T2, Sodium channel alpha subunits; brain (Types I, II, III) (Rattus norvegicus, UniProt P04775+P04774+P08104). Description: In vitro inhibition of [3H]batrachotoxin binding to neurotoxin site 2 of sodium (Na+) channel in rat cerebral cortex membrane. It is filed as cell membranes.
The target in data set [3] is T1, CYP2D6. The data set is described as §1. It is filed as ADME.
Data set [4] is filed under the species Rattus norvegicus. Description: Inhibition of tetrodotoxin (TTX) sensitive current by the compound was determined at 10 uM using whole-cell patch clamp tests in cultured rat dorsal root ganglion (DRG). Format: functional.
The species named for data set [5] is Rattus norvegicus. The data set can be described thus: Inhibition of tetrodotoxin (TTX) resistant current by the compound was determined at 10 uM using whole-cell patch clamp tests in cultured rat dorsal root ganglion (DRG). It is filed as functional.
Data set [6] concerns the target T2, Sodium channel alpha subunits; brain (Types I, II, III). Description: Inhibitory concentration against [3H]batrachotoxin binding to neurotoxin site 2 of sodium (Na+) channel in vitro in rat cerebral cortex membrane at 1 uM. It is filed as cell membranes.

Sequence of CYP3A4 (P08684 whole entry): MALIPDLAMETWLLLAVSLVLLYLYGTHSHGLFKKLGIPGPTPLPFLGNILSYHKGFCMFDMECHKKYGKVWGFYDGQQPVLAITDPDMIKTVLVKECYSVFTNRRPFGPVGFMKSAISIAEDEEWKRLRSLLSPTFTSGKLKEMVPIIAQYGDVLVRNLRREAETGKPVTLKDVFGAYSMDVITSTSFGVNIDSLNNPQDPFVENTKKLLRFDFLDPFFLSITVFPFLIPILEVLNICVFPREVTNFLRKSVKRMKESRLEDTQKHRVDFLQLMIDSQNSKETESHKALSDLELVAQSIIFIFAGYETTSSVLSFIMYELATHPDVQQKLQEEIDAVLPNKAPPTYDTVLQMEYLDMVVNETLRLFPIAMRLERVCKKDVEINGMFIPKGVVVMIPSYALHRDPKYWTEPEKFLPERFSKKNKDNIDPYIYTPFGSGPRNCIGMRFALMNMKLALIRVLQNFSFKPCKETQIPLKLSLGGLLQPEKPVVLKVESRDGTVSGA
Sequence of Cytochrome P450 2D6 (P10635 whole entry): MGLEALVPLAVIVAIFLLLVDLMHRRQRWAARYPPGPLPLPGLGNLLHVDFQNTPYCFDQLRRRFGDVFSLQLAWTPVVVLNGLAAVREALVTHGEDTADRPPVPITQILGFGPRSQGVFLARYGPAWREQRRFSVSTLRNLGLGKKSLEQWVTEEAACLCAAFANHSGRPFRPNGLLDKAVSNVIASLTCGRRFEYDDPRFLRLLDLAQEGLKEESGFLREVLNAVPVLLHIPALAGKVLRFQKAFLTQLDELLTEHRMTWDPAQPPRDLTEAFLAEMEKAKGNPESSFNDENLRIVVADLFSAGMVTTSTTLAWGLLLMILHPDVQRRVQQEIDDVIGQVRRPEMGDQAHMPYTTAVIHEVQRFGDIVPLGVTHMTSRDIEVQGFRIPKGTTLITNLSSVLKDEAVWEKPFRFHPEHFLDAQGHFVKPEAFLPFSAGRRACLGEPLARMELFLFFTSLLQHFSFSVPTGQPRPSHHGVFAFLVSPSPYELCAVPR
T1 sequence (P10635 whole entry): as above

For `COc1ccc(CNC(=O)C(c2ccc(C(F)(F)F)cc2)N2CCN(CC(O)COc3c(C)cccc3C)CC2)cc1` (stereo unspecified), the inhibition at 2 µM against CYP3A4 came to 62%; against CYP2D6 [1] it was 8%. Besides, the Ki on Cytochrome P450 2D6 is 2000 nM. For the same molecule, the IC50 in data set [2] worked out at 355 nM.

As for `COc1ccc(OCC(O)CN2CCN(C(C(=O)NCc3ccccc3)c3ccc(C)cc3)CC2)cc1` (stereo unspecified), the results for the inhibition at 2 µM against CYP3A4 and against CYP2D6 [1] were 65% and 10%, respectively. Also, at Cytochrome P450 2D6, the inhibition constant (Ki) is 4000 nM. Besides, the IC50 in data set [2] was found to be 579 nM.

With `Cc1cccc(C)c1OCC(O)CN1CCN(C(C(=O)NCc2ccccc2)c2ccc(F)cc2)CC1` (stereo unspecified), the values for the inhibition at 2 µM on CYP3A4 and against CYP2D6 [1] were 38% and 20%, respectively. Besides, the Ki at Cytochrome P450 2D6 is 2000 nM. The IC50 in data set [2] came out at 149 nM.

`C=CCOCC(O)CN1CCN(C(c2ccccc2)c2ccc(Cl)cc2)CC1` (stereo unspecified) showed an inhibition at 2 µM against CYP2D6 [3] of 87%. Also, the Ki at Cytochrome P450 2D6 was 100 nM. In the data set filed under Rattus norvegicus [4], this molecule had an Inhibition of 20%. The same molecule returned an IC50 in data set [2] of 401 nM.

Turning to `COc1ccc(OCC(O)CN2CCN(C(C(=O)NCc3ccccc3)c3ccc(C(F)(F)F)cc3)CC2)cc1` (stereo unspecified), the inhibition at 2 µM on CYP3A4 is 68%; on CYP2D6 [1] it was 13%. In addition, the Ki at Cytochrome P450 2D6 is 2000 nM. In addition, in data set [2], the IC50 worked out at 429 nM.

In turn, `OC(COc1ccccc1)CN1CCN(C(c2ccccc2)c2ccc(C(F)(F)F)cc2)CC1` (stereo unspecified) showed an inhibition at 2 µM at CYP2D6 [1] of 87%. In addition, the Ki at Cytochrome P450 2D6 was 600 nM. Also, the Inhibition in the data set filed under Rattus norvegicus [5] came to 57%; in the data set listed under Rattus norvegicus [4] it was 61%. In data set [2], this molecule gave an IC50 of 893 nM.

Take `O=C(NCC(c1ccccc1)N1CCN(CC(O)COc2ccccc2)CC1)c1ccc(F)cc1` (stereo unspecified): the inhibition at 2 µM against CYP3A4 was determined as 61%; on CYP2D6 [1], 9%. Also, the inhibition constant (Ki) on Cytochrome P450 2D6 is 7000 nM. Further, the IC50 in data set [2] worked out at 363 nM.

In the case of `Cc1ccc(C(C(=O)NCc2ccccc2)N2CCN(CC(O)COc3c(C)cccc3C)CC2)cc1` (stereo unspecified), the inhibition at 2 µM was 44% on CYP3A4 and 26% on CYP2D6 [1]. Besides, at Cytochrome P450 2D6, the inhibition constant (Ki) was 2000 nM. In data set [2], the IC50 was 325 nM.

For the molecule `COc1ccc(CNC(=O)C(c2ccc(C(F)(F)F)cc2)N2CCN(CC(O)COc3ccc(OC)cc3)CC2)cc1` (stereo unspecified), the inhibition at 2 µM is 88% against CYP3A4 and 0% on CYP2D6 [1]. For the same molecule, on Cytochrome P450 2D6, the Ki is 4000 nM. This molecule returned an IC50 in data set [2] of 359 nM.

As to `COc1ccc(OCC(O)CN2CCN(C(C(=O)NCc3ccccc3)c3ccc(F)cc3)CC2)cc1` (stereo unspecified), the inhibition at 2 µM was determined as 49% at CYP3A4 and 0% against CYP2D6 [1]. The inhibition constant Ki at Cytochrome P450 2D6 was 5000 nM. Besides, the half-maximal inhibitory concentration (IC50) in data set [2] came out at 254 nM.

As for `COc1ccc(C(=O)NCC(c2ccccc2)N2CCN(CC(O)COc3ccc(Cl)cc3)CC2)cc1` (stereo unspecified), the inhibition at 2 µM on CYP3A4 turned out to be 96%; at CYP2D6 [1], 47%. The Ki at Cytochrome P450 2D6 is 4000 nM. This molecule returned a half-inhibitory concentration (IC50) in data set [2] of 538 nM.

With `COc1ccc(CNC(=O)C(c2ccc(OC)cc2)N2CCN(CC(O)COc3c(C)cccc3C)CC2)cc1` (stereo unspecified), the inhibition at 2 µM was 74% against CYP3A4 and 9% against CYP2D6 [1]. Moreover, the Ki on Cytochrome P450 2D6 is 5000 nM. The IC50 in data set [2] stood at 571 nM.

Regarding `COc1ccc(OCC(O)CN2CCN(C(CNC(=O)c3ccc(F)cc3)c3ccccc3)CC2)cc1` (stereo unspecified), the inhibition at 2 µM against CYP3A4 amounted to 22%; on CYP2D6 [1], 33%. Besides, the Ki at Cytochrome P450 2D6 is 3000 nM. The molecule also displayed an IC50 in data set [2] of 531 nM.

`COc1ccc(CNC(=O)C(c2ccc(F)cc2)N2CCN(CC(O)COc3ccc(OC)cc3)CC2)cc1` (stereo unspecified): the inhibition at 2 µM turned out to be 81% at CYP3A4 and 10% against CYP2D6 [1]. In addition, the inhibitory constant (Ki) on Cytochrome P450 2D6 is 7000 nM. Besides, in data set [2], the concentration for half-maximal inhibition (IC50) was found to be 214 nM.

As to `COc1ccc(OC)c(S(=O)(=O)NCC(c2ccccc2)N2CCN(CC(O)COc3ccc(Br)cc3)CC2)c1` (stereo unspecified), the inhibition at 2 µM amounted to 100% against CYP3A4 and 25% at CYP2D6 [1]. In addition, on Cytochrome P450 2D6, the inhibition constant Ki was 30000 nM. Also, in data set [2], the half-inhibitory concentration (IC50) turned out to be 522 nM.

Turning to `COc1ccc(OCC(O)CN2CCN(C(CNC(=O)c3ccccc3OC)c3ccccc3)CC2)cc1` (stereo unspecified), the inhibition at 2 µM on CYP3A4 was 93%; at CYP2D6 [1], 9%. Further, at Cytochrome P450 2D6, the inhibition constant Ki was 8000 nM. In data set [2], this molecule had an IC50 of 721 nM.

Consider `COc1ccc(CNC(=O)C(c2ccc(C)cc2)N2CCN(CC(O)COc3c(C)cccc3C)CC2)cc1` (stereo unspecified), for which the inhibition at 2 µM against CYP3A4 came to 74%; against CYP2D6 [1] it was 14%. For the same molecule, at Cytochrome P450 2D6, the inhibition constant Ki was 3000 nM. The same molecule had an IC50 in data set [2] of 351 nM.

With `O=S(=O)(NCC(c1ccc(C(F)(F)F)cc1)N1CCN(CC(O)COc2ccc(F)cc2)CC1)c1ccccc1Cl` (stereo unspecified), the results for the inhibition at 2 µM at CYP3A4 and at CYP2D6 [1] were 92% and 56%, respectively. For the same molecule, the Ki at Cytochrome P450 2D6 was 10000 nM. In data set [6], this molecule registered an IC50 of 76 nM.

In the case of `COc1ccc(OCC(O)CN2CCN(C(CNC(=O)c3ccc(OC)cc3)c3ccccc3)CC2)cc1` (stereo unspecified), the figures for the inhibition at 2 µM at CYP3A4 and against CYP2D6 [1] were 95% and 12%, respectively. For the same molecule, the Ki on Cytochrome P450 2D6 is 8000 nM. Besides, in data set [2], the half-maximal inhibitory concentration (IC50) is 871 nM.

`Cc1cccc(S(=O)(=O)NCC(c2ccc(C(F)(F)F)cc2)N2CCN(CC(O)COc3ccc(Br)cc3)CC2)c1` (stereo unspecified): the results for the inhibition at 2 µM against CYP3A4 and against CYP2D6 [1] were 76% and 27%, respectively. Further, the Ki at Cytochrome P450 2D6 was 10000 nM. Further, in data set [6], the IC50 was found to be 95 nM.
